# From ChEMBL document CHEMBL1201862, “PubChem BioAssay data set” (2004)
#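 Following 48 hours of exposure in 96-well plates, responses at five concentrations were used to interpolate endpoints linearly. GI50: concentration for 50% inhibition of growth.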 Calls of active or inactive are those of the source. Rule as the data show it: active = GI50 up to about 1.1 µM and inactive = higher.
# Legend:
# Test in all cases: NCI anticancer screen, dose series, 48 h
# [1] = test system: UO-31
# [2] = test system: SN12C
# [3] = test system: HOP-92
# [4] = test system: SW-620
# [5] = test system: SNB-75
# [6] = test system: SF-268
# [7] = test system: PC-3
# [8] = test system: NCI-H460
# [9] = test system: HOP-62
# [10] = test system: OVCAR-3
# [11] = test system: ACHN
# [12] = test system: RPMI-8226
# [13] = test system: LOX IMVI
# [14] = test system: HCT-15
# [15] = test system: A498
# [16] = test system: MOLT-4
# [17] = test system: A549
# [18] = test system: Hs-578T
# [19] = test system: CAKI-1
# [20] = test system: Malme-3M
# [21] = test system: OVCAR-4
# [22] = test system: CCRF-CEM
# [23] = test system: SF-295
# [24] = test system: OVCAR-8
# [25] = test system: OVCAR-5
# [26] = test system: NCI-H522
# [27] = test system: 786-0
# [28] = test system: NCI-H23
# [29] = test system: MDA-MB-435
# [30] = test system: MDA-MB-231
# [31] = test system: IGROV-1
# [32] = test system: UACC-62
# [33] = test system: HCT-116
# [34] = test system: SR
# [35] = test system: K562
# [36] = test system: MCF7
# [37] = test system: SK-MEL-5
# [38] = test system: NCI/ADR-RES
# [39] = test system: UACC-257
# [40] = test system: EKVX
# [41] = test system: BT-549
# [42] = test system: SK-MEL-2
# [43] = test system: M14
# [44] = test system: HCC 2998
# [45] = test system: MDA-N
# [46] = test system: SK-MEL-28
# [47] = test system: T47D
# [48] = test system: DU-145
# [49] = test system: NCI-H226
# [50] = test system: U-251
# [51] = test system: RXF 393
# [52] = test system: SNB-19
# [53] = test system: TK-10
# [54] = test system: COLO 205
# [55] = test system: KM12
# [56] = test system: HT-29
# [57] = test system: SK-OV-3
# [58] = test system: HL-60
# [59] = test system: SF-539
smiles,measurement,setting,value
NC(=O)c1cc2ccc(O)cc2o/c1=N/c1ccccc1,GI50,[1],3.6 µM (inactive)
same,GI50,[2],22.3 µM (inactive)
same,GI50,[3],34 µM (inactive)
same,GI50,[4],26.2 µM (inactive)
same,GI50,[5],13.5 µM (inactive)
same,GI50,[6],51.2 µM (inactive)
same,GI50,[7],37.7 µM (inactive)
same,GI50,[8],25.9 µM (inactive)
same,GI50,[9],40.7 µM (inactive)
same,GI50,[10],35.2 µM (inactive)
same,GI50,[11],24.9 µM (inactive)
same,GI50,[12],20.7 µM (inactive)
same,GI50,[13],24 µM (inactive)
same,GI50,[14],26.4 µM
same,GI50,[15],16.3 µM (inactive)
same,GI50,[16],29 µM (inactive)
same,GI50,[17],25.6 µM (inactive)
same,GI50,[18],64.3 µM (inactive)
same,GI50,[19],19.3 µM (inactive)
same,GI50,[20],50.8 µM (inactive)
same,GI50,[21],42.3 µM (inactive)
same,GI50,[22],37.5 µM (inactive)
same,GI50,[23],43.5 µM (inactive)
same,GI50,[24],30.3 µM (inactive)
same,GI50,[25],67.9 µM (inactive)
same,GI50,[26],17.8 µM (inactive)
same,GI50,[27],30.3 µM (inactive)
same,GI50,[28],18.1 µM (inactive)
same,GI50,[29],23.3 µM (inactive)
same,GI50,[30],67.8 µM (inactive)
same,GI50,[31],26.5 µM (inactive)
same,GI50,[32],28.5 µM (inactive)
same,GI50,[33],24.4 µM (inactive)
same,GI50,[34],16.1 µM (inactive)
same,GI50,[35],34.5 µM (inactive)
same,GI50,[36],31.2 µM (inactive)
same,GI50,[37],18.4 µM (inactive)
same,GI50,[38],23.8 µM (inactive)
same,GI50,[39],39.3 µM (inactive)
same,GI50,[40],31.1 µM (inactive)
same,GI50,[41],24.4 µM (inactive)
same,GI50,[42],17.2 µM (inactive)
same,GI50,[43],29.5 µM (inactive)
same,GI50,[44],22.2 µM (inactive)
same,GI50,[45],22.5 µM (inactive)
same,GI50,[46],35.6 µM (inactive)
same,GI50,[47],16 µM (inactive)
same,GI50,[48],43.2 µM (inactive)
same,GI50,[49],17.1 µM (inactive)
same,GI50,[50],34.7 µM (inactive)
same,GI50,[51],26.2 µM (inactive)
same,GI50,[52],36 µM (inactive)
same,GI50,[53],27.1 µM (inactive)
same,GI50,[54],18.5 µM (inactive)
same,GI50,[55],27.2 µM (inactive)
same,GI50,[56],33 µM (inactive)
same,GI50,[57],34.5 µM (inactive)
same,GI50,[58],25.1 µM (inactive)
Cc1nn(C(=O)c2ccccc2O)c2c1C(c1ccc(O)cc1)SC(=N)N2 (stereo not drawn),GI50,[1],7.55 µM (inactive)
same,GI50,[2],1.79 µM (inactive)
same,GI50,[4],> 6.64 µM (inactive)
same,GI50,[5],0.74 µM (active)
same,GI50,[6],3.45 µM (inactive)
same,GI50,[7],> 3.03 µM (inactive)
same,GI50,[8],0.359 µM (active)
same,GI50,[10],> 2.66 µM (inactive)
same,GI50,[11],0.951 µM (active)
same,GI50,[13],1.36 µM (inactive)
same,GI50,[14],1.75 µM
same,GI50,[15],3.06 µM (inactive)
same,GI50,[16],1.33 µM (inactive)
same,GI50,[17],1.26 µM (inactive)
same,GI50,[18],0.449 µM (active)
same,GI50,[19],> 2.32 µM (inactive)
same,GI50,[20],0.601 µM (active)
same,GI50,[21],> 2.12 µM (inactive)
same,GI50,[22],1.7 µM (inactive)
same,GI50,[23],1.26 µM (inactive)
same,GI50,[24],> 2.47 µM (inactive)
same,GI50,[25],> 6.35 µM (inactive)
same,GI50,[26],> 3.29 µM (inactive)
same,GI50,[27],> 2.56 µM (inactive)
same,GI50,[28],1.83 µM (inactive)
same,GI50,[29],1.21 µM (inactive)
same,GI50,[30],> 3.18 µM (inactive)
same,GI50,[31],2.08 µM (inactive)
same,GI50,[32],0.929 µM (active)
same,GI50,[33],1.49 µM (inactive)
same,GI50,[34],1.44 µM (inactive)
same,GI50,[35],0.955 µM (active)
same,GI50,[36],> 2.36 µM (inactive)
same,GI50,[37],> 3.08 µM (inactive)
same,GI50,[38],2.03 µM (inactive)
same,GI50,[39],0.805 µM (active)
same,GI50,[40],> 4 µM (inactive)
same,GI50,[41],> 10 µM (inactive)
same,GI50,[42],> 2.65 µM (inactive)
same,GI50,[43],> 2.86 µM (inactive)
same,GI50,[44],> 8.91 µM (inactive)
same,GI50,[45],1.67 µM (inactive)
same,GI50,[46],> 10 µM (inactive)
same,GI50,[47],1.23 µM (inactive)
same,GI50,[48],1.67 µM (inactive)
same,GI50,[50],1.37 µM (inactive)
same,GI50,[51],1.23 µM (inactive)
same,GI50,[52],8.41 µM (inactive)
same,GI50,[53],> 2.52 µM (inactive)
same,GI50,[54],> 6.93 µM (inactive)
same,GI50,[55],> 2.15 µM (inactive)
same,GI50,[56],> 6.9 µM (inactive)
same,GI50,[59],1.36 µM (inactive)
same,GI50,[57],2.25 µM (inactive)
same,GI50,[58],> 2.03 µM (inactive)
